Laboratory results published in the RepoRT retention time repository (doi:10.1021/acs.analchem.1c00972).

Test: RP, Waters ACQUITY UPLC BEH C18, 100 × 1 mm, 1.7 µm, 50 °C, 0.3 mL/min, estimated dead time 0.17 min; A: water + 0.1% formic acid + 20 mM ammonium formate; B: methanol + 0.1% formic acid + 20 mM ammonium formate; gradient (min/%B) 0/0 15/100 21/100 22/0 30/0
Conditions: stereoisomer not certain

Row | LC retention time | Compound
1 | 12.4 min | CC12C=CC(=O)C=C1CCC1C2C(O)CC2(C)C1CCC2(O)C(=O)CO (centres undefined) [Prednisolone]
2 | 14.3 min | CCCCCC1=CC(=O)C=C(OC)C1=O [Primin]
3 | 11.7 min | CC1=C(C(=O)Nc2ccccc2)CCCO1 [Pyracarbolid]
4 | 14.3 min | CON=C(Cc1cccnc1)c1ccc(Cl)cc1Cl [Pyrifenox]
5 | 11.7 min | COc1cc(OC)n2nc(NS(=O)(=O)c3c(C(F)(F)F)ccnc3OC)nc2n1 [Pyroxsulam]
6 | 11.4 min | O=c1c(O)c(-c2ccc(O)c(O)c2)oc2cc(O)cc(O)c12 [Quercetin]
7 | 7.3 min | O=C(O)c1ccc2ccccc2n1 [Quinaldic acid]
8 | 9.75 min | CC1OC(OCC2OC(Oc3c(-c4ccc(O)c(O)c4)oc4cc(O)cc(O)c4c3=O)C(O)C(O)C2O)C(O)C(O)C1O (centres undefined) [Rutin]
9 | 21.3 min | CCC(C=CC(C)C1CCC2C3CC=C4CC(O)CCC4(C)C3CCC12C)C(C)C (centres undefined) [Stigmasterol]
10 | 9.6 min | O=C(O)CCCCCCC(=O)O [Suberic_acid]
11 | 14 min | Nc1ccc(S(=O)(=O)Nc2cnc3ccccc3n2)cc1 [Sulfachinoxalin]
12 | 8.03 min | COc1ccc(NS(=O)(=O)c2ccc(N)cc2)nn1 [Sulfamethoxypyridazin]
13 | 2.73 min | O=S1(=O)CCCC1 [Sulfolane]
14 | 15 min | CC(=O)OC1C(=O)C2(C)C(O)CC3OCC3(OC(C)=O)C2C(OC(=O)c2ccccc2)C2(O)CC(OC(=O)C(O)C(NC(=O)c3ccccc3)c3ccccc3)C(C)=C1C2(C)C (centres undefined) [Taxol]
15 | 14.3 min | C=CNc1nc(NC(C)(C)C)nc(SC)n1 [Terbutryn-desaturated]
16 | 11.9 min | CCNc1nc(=S)nc(NC(C)(C)C)[nH]1 [Terbutryn-desmethyl]
17 | 11.8 min | CNC(=O)N(C)c1nnc(C(F)(F)F)s1 [Thiazafluron]
18 | 11.8 min | [O-][n+]1nc(-n2ccnc2)nc2ccc(Cl)cc21 [Triazoxide]
19 | 2 min | O=S(=O)(O)C(F)(F)F [Trifluoromethanesulfonic acid]
20 | 8.28 min | COCCOCCOCCOC [Triglyme]
21 | 13.2 min | CCOC(=O)C1CC(=O)C(=C(O)C2CC2)C(=O)C1 (centres undefined) [Trinexapac-ethyl]

Row | LC retention time | Compound
22 | 15.6 min | O=P(OCC(Cl)CCl)(OCC(Cl)CCl)OCC(Cl)CCl (centres undefined) [Tris(2,3-dichloropropyl) phosphate]
23 | 19.9 min | CCCCC(CC)COP(=O)(OCC(CC)CCCC)OCC(CC)CCCC (centres undefined) [Tris(2-Ethylhexyl) phosphate]
24 | 17.6 min | Cc1cc(-n2nc3ccc(Cl)cc3n2)c(O)c(C(C)(C)C)c1 [UV-326]
25 | 18.5 min | CC1CCC2(C(=O)O)CCC3(C)C(=CCC4C5(C)CCC(O)C(C)(C)C5CCC43C)C2C1C (centres undefined) [Ursolic acid]
26 | 18.1 min | O=C1CCCC=CCCCCCCCCCC1 [Velvione]
27 | 13.6 min | O=c1c2ccccc2oc2ccccc12 [Xanthon]
28 | 6.8 min | O=C(O)c1cc(=O)c2cccc(O)c2[nH]1 [Xanthurenic acid]
29 | 12.4 min | Cc1cc(C(C)(C)C)cc(C)c1CC1=NCCN1 [Xylometazoline]
30 | 8.04 min | Cc1cn(C2CC(N=[N+]=[N-])C(CO)O2)c(=O)[nH]c1=O (centres undefined) [Zidovudine]
31 | 8.02 min | NS(=O)(=O)Cc1noc2ccccc12 [Zonisamide]
32 | 14 min | CCCCCC(O)CC(=O)CCc1ccc(O)c(OC)c1 (centres undefined) [[6]-Gingerol]
33 | 3.8 min | CC(=O)Nc1ccc(OC2OC(C(=O)O)C(O)C(O)C2O)cc1 (centres undefined) [acetaminophen_glucuronide]
34 | 8 min | NC(=O)Cc1c[nH]c2ccccc12 [indoleacetamide]
35 | 13.3 min | Cc1cnc(NC(=O)C2=C(O)c3ccccc3S(=O)(=O)N2C)s1 [meloxicam]
36 | 4.7 min | NC(Cc1ccccc1)C(=O)O (centres undefined) [phenylalanine]
37 | 7.8 min | O=C1NC(=O)c2ccccc21 [phthalimide]
38 | 9.5 min | C=CC1CN2CCC1CC2C(O)c1ccnc2ccc(OC)cc12 (centres undefined) [quinidine]
39 | 7.5 min | O=C(O)/C=C/c1cccc(O)c1 [trans-3-Hydroxycinnamic acid]
40 | 9.9 min | O=C(O)/C=C/c1ccccc1 [trans-Cinnamic acid]
41 | 6.3 min | NC(Cc1c[nH]c2ccccc12)C(=O)O (centres undefined) [tryptophan]

The next lines start with the compound.

Row | Compound | LC retention time
42 | CN(C)CCC=C1c2ccccc2COc2ccc(CC(=O)O)cc21 [Olopatadine] | 11.5 min
43 | CCCCCCCCCCCC(CC1OC(=O)C1CCCCCC)OC(=O)C(CC(C)C)NC=O (centres undefined) [Orlistat] | 19 min
44 | CCOC(=O)C1=CC(OC(CC)CC)C(NC(C)=O)C(N)C1 (centres undefined) [Oseltamivir] | 11.5 min
45 | CNC(=O)ON=C(SC)C(=O)N(C)C [Oxamyl] | 7.21 min
46 | CCOc1cc(Oc2ccc(C(F)(F)F)cc2Cl)ccc1[N+](=O)[O-] [Oxyfluorfen] | 16.8 min
47 | CCC(C(N)=O)(C(N)=O)c1ccccc1 [PEMA] | 7.76 min
48 | CCCCCCCCCCCCCCCC(=O)NCCO [Palmitoylethanolamide] | 18.4 min
49 | Nc1nc2c(ncn2CCC(CO)CO)c(=O)[nH]1 [Penciclovir] | 3.58 min
50 | Cc1cc([N+](=O)[O-])c(N)c([N+](=O)[O-])c1C [Pendimethalin-N-dealkylation] | 14.6 min
51 | CCC=Nc1c([N+](=O)[O-])cc(C)c(C)c1[N+](=O)[O-] [Pendimethalin-desethyl] | 8.48 min
52 | NC(Cc1ccccc1)C(=O)N1CCCC1C(=O)O (centres undefined) [Phe-Pro] | 8.7 min
53 | c1ccc2c(c1)Nc1ccccc1S2 [Phenothiazine] | 14.9 min
54 | CCOC(=O)C(SP(=S)(OC)OC)c1ccccc1 (centres undefined) [Phenthoate] | 15.4 min
55 | O=C1NC(=O)C(c2ccccc2)(c2ccccc2)N1 [Phenytoin] | 12 min
56 | N#Cc1ccccc1C#N [Phthalonitrile] | 8.45 min
57 | Nc1ccc(F)cc1 [Picolinafen-Fluoroaniline] | 2.59 min
58 | O=C(O)c1cccc(Oc2cccc(C(F)(F)F)c2)n1 [Picolinafen-OH-O-dealkylation] | 14 min
59 | CCc1cc(C)cc(CC)c1-c1c(OC(=O)C(C)(C)C)n2n(c1=O)CCOCC2 [Pinoxaden] | 10.5 min
60 | CCOC(=O)OC1(C(=O)COC(=O)CC)CCC2C3CCC4=CC(=O)C=CC4(C)C3C(O)CC21C (centres undefined) [Prednicarbate] | 15.3 min
61 | CC12CC1(C)C(=O)N(c1cc(Cl)cc(Cl)c1)C2=O (centres undefined) [Procymidone] | 14.6 min
62 | CSc1nc(NC(C)C)nc(NC(C)C)n1 [Prometryne] | 14.2 min
63 | CC(C)=NOCCOC(=O)C(C)Oc1ccc(Oc2cnc3cc(Cl)ccc3n2)cc1 (centres undefined) [Propaquizafop] | 16.8 min
64 | CC(C)Nc1nc(Cl)nc(NC(C)C)n1 [Propazin] | 14 min
65 | CCNP(=S)(OC)OC(C)=CC(=O)OC(C)C (centres undefined) [Propetamphos] | 14.6 min

Row | Compound | LC retention time
66 | CC(C)OC(=O)Nc1ccccc1 [Propham] | 12.7 min
67 | CC1=NNC(=O)N(N=Cc2cccnc2)C1 [Pymetrozine] | 5.76 min
68 | CCOC(=O)c1cn2nc(OP(=S)(OCC)OCC)cc2nc1C [Pyrazophos] | 15.9 min
69 | CCOP(=S)(OCC)Oc1cnc2ccccc2n1 [Quinalophos] | 15.3 min
70 | CCC(C(=O)O)C1CCC(C)C(C(C)C(O)C(C)C(=O)C(CC)C2OC3(C=CC(O)C4(CCC(C)(C5CCC(O)(CC)C(C)O5)O4)O3)C(C)CC2C)O1 (centres undefined) [Salinomycin] | 18.4 min
71 | CC1CCCCC1NC(=O)Nc1ccccc1 (centres undefined) [Siduron] | 13.9 min
72 | CC(=O)N1N=C(c2ccc(N)cc2)c2cc3c(cc2CC1C)OCO3 (centres undefined) [Talampanel] | 11.5 min
73 | C[N+](C)(C)C [Tetramethylammonium cation] | 2 min
74 | NC(=O)N=C1SCCN1Cc1ccc(Cl)nc1 [Thiacloprid amide] | 8.82 min
75 | CNC(=O)ON=C(CSC)C(C)(C)C [Thiofanox] | 11.7 min
76 | CCOC(=O)C1(c2ccccc2)CCC=CC1N(C)C (centres undefined) [Tilidine] | 9.57 min
77 | CC(C)(C)C(=O)C(Oc1ccc(Cl)cc1)n1cncn1 (centres undefined) [Triadimefon] | 14.5 min
78 | COP(=O)(OC)OC [Trimethyl phosphate] | 6.17 min
79 | Cc1ccccc1OP(=O)(Oc1ccccc1C)Oc1ccccc1C [Tris(2-methylphenyl) phosphate (tri-o-cresyl phosphate)] | 17 min
80 | O=C(OC1CC2CCC(C1)[N+]21CCCC1)C(O)(c1ccccc1)c1ccccc1 (centres undefined) [Trospium] | 14.2 min
81 | CC(C)(c1ccccc1)c1cc(-n2nc3ccccc3n2)c(O)c(C(C)(C)c2ccccc2)c1 [UV-234] | 16.6 min
82 | CC(C)(C)c1cc(-n2nc3ccccc3n2)c(O)c(C(C)(C)C)c1 [UV-320] | 19.8 min
83 | CC(C)(C)c1cc(-n2nc3ccc(Cl)cc3n2)c(O)c(C(C)(C)C)c1 [UV-327] | 10.2 min
84 | COc1ccc2c3c1OC1C(OC4OC(C(=O)O)C(O)C(O)C4O)C=CC4C(C2)N(C)CCC341 (centres undefined) [codeine-6-glucuronide] | 11.4 min
85 | NCCc1ccc(OC2OC(C(=O)O)C(O)C(O)C2O)c(O)c1 (centres undefined) [dopamine_glucuronide] | 9.2 min
86 | CNC(C)C(O)c1ccccc1 (centres undefined) [ephedrine] | 7.4 min
87 | CCC(C(N)=O)N1CCCC1=O (centres undefined) [levetiracetam] | 6.9 min
88 | CC12CCC(=O)C=C1CCC1C2CCC2(C)C(OC3OC(C(=O)O)C(O)C(O)C3O)CCC12 (centres undefined) [testosterone_glucuronide] | 13.6 min
89 | NCCc1c[nH]c2ccccc12 [tryptamine] | 7 min
